Source: PubChem BioAssay AID2060627 (Molecular Pharmacology Branch, DTP, NCI, 2025)
pIC50: −log10 of the molar value. Where “and” joins values, the source holds several entries; their conditions need not be identical. Equal values may be shown once.

Test system: 156681-154-R-J1-PDC complex spheroid viability
Assay: Anticancer human tumor 156681-154-R-J1-PDC patient-derived melanoma cell line growth inhibition [CLK]
Conditions: for viability, T/C: stronger effect = lower value
Summary of the method: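 Patient-derived tumor cells grown as complex spheroids with HUVEC endothelial cells and mesenchymal stem cells, treated with drug combinations. Concentrations descend in half-log steps from near clinical Cmax, or from 10 microM if Cmax unknown.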

[1] = curve of first compound, second compound 0.0316 µM
[2] = curve of first compound, second compound 0.1 µM
[3] = curve of first compound, second compound 0.316 µM
[4] = curve of first compound, second compound 1 µM
[5] = curve of first compound, second compound 3.16 µM
[6] = curve of first compound, second compound 10 µM
[7] = second compound 0.0316 µM, first compound 0.0316 µM
[8] = second compound 0.0316 µM, first compound 0.1 µM
[9] = second compound 0.0316 µM, first compound 0.316 µM
[10] = second compound 0.0316 µM, first compound 1 µM
[11] = second compound 0.1 µM, first compound 0.0316 µM
[12] = second compound 0.1 µM, first compound 0.1 µM
[13] = second compound 0.1 µM, first compound 0.316 µM
[14] = second compound 0.1 µM, first compound 1 µM
[15] = second compound 0.316 µM, first compound 0.0316 µM
[16] = second compound 0.316 µM, first compound 0.1 µM
[17] = second compound 0.316 µM, first compound 0.316 µM
[18] = second compound 0.316 µM, first compound 1 µM
[19] = second compound 1 µM, first compound 0.0316 µM
[20] = second compound 1 µM, first compound 0.1 µM
[21] = second compound 1 µM, first compound 0.316 µM
[22] = second compound 1 µM, first compound 1 µM
[23] = second compound 3.16 µM, first compound 0.0316 µM
[24] = second compound 3.16 µM, first compound 0.1 µM
[25] = second compound 3.16 µM, first compound 0.316 µM
[26] = second compound 3.16 µM, first compound 1 µM
[27] = second compound 10 µM, first compound 0.0316 µM
[28] = second compound 10 µM, first compound 0.1 µM
[29] = second compound 10 µM, first compound 0.316 µM
[30] = second compound 10 µM, first compound 1 µM
[31] = second compound 0.0316 µM, first compound 3.16 µM
[32] = second compound 0.0316 µM, first compound 10 µM
[33] = second compound 0.1 µM, first compound 3.16 µM
[34] = second compound 0.1 µM, first compound 10 µM
[35] = second compound 0.316 µM, first compound 3.16 µM
[36] = second compound 0.316 µM, first compound 10 µM
[37] = second compound 1 µM, first compound 3.16 µM
[38] = second compound 1 µM, first compound 10 µM
[39] = second compound 3.16 µM, first compound 3.16 µM
[40] = second compound 3.16 µM, first compound 10 µM
[41] = second compound 10 µM, first compound 3.16 µM
[42] = second compound 10 µM, first compound 10 µM
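Also: spheroids exposed to the agents for seven days.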
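For viability, T/C in this document: 100% = DMSO vehicle control viability.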

CC(Nc1ccc2c(c1)OCCn1cc(N3C(=O)OCC3C(F)F)nc1-2)C(N)=O (centres undefined)
viability, T/C (compound 0.0316 µM): 67.3% and 70.1%
viability, T/C (compound 0.1 µM): 65.7% and 55.4%
viability, T/C (compound 0.316 µM): 53.8% and 52.7%
viability, T/C (compound 1 µM): 39.9% and 37.6%
viability, T/C (compound 3.16 µM): 32.3% and 33.9%
viability, T/C (compound 10 µM): 23.5% and 19.5%
pIC50 (curve of compound): 6.34 and 6.52

CC1COCCN1c1cc(C2(S(C)(=N)=O)CC2)nc(-c2ccnc3[nH]ccc23)n1 (centres undefined)
viability, T/C (compound 0.0316 µM): 78.6% and 84.9%
viability, T/C (compound 0.1 µM): 88.3% and 97.8%
viability, T/C (compound 0.316 µM): 85.9% and 86.3%
viability, T/C (compound 1 µM): 61.9% and 48%
viability, T/C (compound 3.16 µM): 24% and 20.1%
viability, T/C (compound 10 µM): 15.4% and 13.1%
pIC50 (curve of compound): 5.84 and 6.02

CCc1c2c(nc3ccc(O)cc13)-c1cc3c(c(=O)n1C2)COC(=O)[C@]3(O)CC + CN1CCN(c2cc(C(=O)Nc3cc4cc(-c5cnn(C)c5)ccc4cn3)ccn2)CC1
pIC50 [1]: > 8.50
pIC50 [2]: > 8.50
pIC50 [3]: > 8.50
pIC50 [4]: > 8.50
pIC50 [5]: > 8.50
pIC50 [6]: > 8.50
viability, T/C (second compound 0.0316 µM, first compound 0.00316 µM): 42.5%
viability, T/C (second compound 0.0316 µM, first compound 0.01 µM): 14.9%
viability, T/C [7]: 15%
viability, T/C [8]: 16.9%
viability, T/C [9]: 17.2%
viability, T/C [10]: 4.31%
viability, T/C (second compound 0.1 µM, first compound 0.00316 µM): 24.5%
viability, T/C (second compound 0.1 µM, first compound 0.01 µM): 15.2%
viability, T/C [11]: 12.1%
viability, T/C [12]: 16.4%
viability, T/C [13]: 13.9%
viability, T/C [14]: 2.11%
viability, T/C (second compound 0.316 µM, first compound 0.00316 µM): 12.3%
viability, T/C (second compound 0.316 µM, first compound 0.01 µM): 12.3%
viability, T/C [15]: 14.7%
viability, T/C [16]: 5.42%
viability, T/C [17]: 1.97%
viability, T/C [18]: 1.05%
viability, T/C (second compound 1 µM, first compound 0.00316 µM): 0.13%
viability, T/C (second compound 1 µM, first compound 0.01 µM): 0.25%
viability, T/C [19]: 0.33%
viability, T/C [20]: 2.85%
viability, T/C [21]: 2.44%
viability, T/C [22]: 0.97%
viability, T/C (second compound 3.16 µM, first compound 0.00316 µM): 0.1%
viability, T/C (second compound 3.16 µM, first compound 0.01 µM): 2.44%
viability, T/C [23]: 1.86%
viability, T/C [24]: 0.73%
viability, T/C [25]: 1.39%
viability, T/C [26]: 0.88%
viability, T/C (second compound 10 µM, first compound 0.00316 µM): 0.64%
viability, T/C (second compound 10 µM, first compound 0.01 µM): 3.44%
viability, T/C [27]: 2.3%
viability, T/C [28]: 1.35%
viability, T/C [29]: 2.63%
viability, T/C [30]: 2.01%

Nc1ccn(C2OC(CO)C(O)C2(F)F)c(=O)n1 (centres undefined) + CN1CCN(c2cc(C(=O)Nc3cc4cc(-c5cnn(C)c5)ccc4cn3)ccn2)CC1
pIC50 [1]: > 7.50
pIC50 [2]: > 7.50
pIC50 [3]: > 7.50
pIC50 [4]: > 7.50
pIC50 [5]: > 7.50
pIC50 [6]: > 7.50
viability, T/C [7]: 16.4%
viability, T/C [8]: 16.1%
viability, T/C [9]: 20.3%
viability, T/C [10]: 14.8%
viability, T/C [31]: 12%
viability, T/C [32]: 16.9%
viability, T/C [11]: 19%
viability, T/C [12]: 13.4%
viability, T/C [13]: 12.9%
viability, T/C [14]: 12.8%
viability, T/C [33]: 10.9%
viability, T/C [34]: 12.8%
viability, T/C [15]: 13.8%
viability, T/C [16]: 14%
viability, T/C [17]: 10.1%
viability, T/C [18]: 11.7%
viability, T/C [35]: 16.5%
viability, T/C [36]: 9.83%
viability, T/C [19]: 0.16%
viability, T/C [20]: 0.82%
viability, T/C [21]: 0.37%
viability, T/C [22]: 1.65%
viability, T/C [37]: 0.78%
viability, T/C [38]: 1.59%
viability, T/C [23]: 0.16%
viability, T/C [24]: 1.54%
viability, T/C [25]: 0.42%
viability, T/C [26]: 0.1%
viability, T/C [39]: 4.55%
viability, T/C [40]: 0.67%
viability, T/C [27]: 0.15%
viability, T/C [28]: 2.7%
viability, T/C [29]: 0.29%
viability, T/C [30]: 4.06%
viability, T/C [41]: 1.19%
viability, T/C [42]: 2.59%

O=C(c1cc(Cc2n[nH]c(=O)c3ccccc23)ccc1F)N1CCN(C(=O)C2CC2)CC1 + CNC(=O)c1ccc(Nc2nc(OC3CCCC3)c3c(-c4ccc5nc(C)oc5c4)c[nH]c3n2)c(OC)c1
pIC50 [1]: < 5.00
pIC50 [2]: < 5.00
pIC50 [3]: < 5.00
pIC50 [4]: 6.32
pIC50 [5]: > 7.50
pIC50 [6]: > 7.50
viability, T/C [7]: 98.2%
viability, T/C [8]: 108%
viability, T/C [9]: 92.3%
viability, T/C [10]: 103%
viability, T/C [31]: 92.5%
viability, T/C [32]: 79.3%
viability, T/C [11]: 65.4%
viability, T/C [12]: 72.5%
viability, T/C [13]: 65.4%
viability, T/C [14]: 80.9%
viability, T/C [33]: 82.8%
viability, T/C [34]: 60.5%
viability, T/C [15]: 78.9%
viability, T/C [16]: 69.3%
viability, T/C [17]: 76.3%
viability, T/C [18]: 71%
viability, T/C [35]: 70.3%
viability, T/C [36]: 54.3%
viability, T/C [19]: 59.7%
viability, T/C [20]: 48.5%
viability, T/C [21]: 48.9%
viability, T/C [22]: 47.9%
viability, T/C [37]: 42.8%
viability, T/C [38]: 25.8%
viability, T/C [23]: 47.8%
viability, T/C [24]: 48.2%
viability, T/C [25]: 47.9%
viability, T/C [26]: 45.2%
viability, T/C [39]: 35.2%
viability, T/C [40]: 20.2%
viability, T/C [27]: 50.6%
viability, T/C [28]: 37%
viability, T/C [29]: 38.6%
viability, T/C [30]: 43.1%
viability, T/C [41]: 27.5%
viability, T/C [42]: 15.6%

CCCS(=O)(=O)Nc1ccc(F)c(C(=O)c2c[nH]c3ncc(-c4ccc(Cl)cc4)cc23)c1F
viability, T/C (compound 0.0316 µM): 90.6% and 79.6%
viability, T/C (compound 0.1 µM): 77.4% and 59.3%
viability, T/C (compound 0.316 µM): 99.6% and 96.6%
viability, T/C (compound 1 µM): 92.4% and 73.8%
viability, T/C (compound 3.16 µM): 85.8% and 83.2%
viability, T/C (compound 10 µM): 11.3% and 6.41%
pIC50 (curve of compound): 5.26 and 5.30

COC1C=CCC(C)C(C)S(=O)(=O)NC(=O)c2ccc3c(c2)N(CC2CCC21)CC1(CCCc2cc(Cl)ccc21)CO3 (centres undefined) + CNC(=O)c1ccc(Nc2nc(OC3CCCC3)c3c(-c4ccc5nc(C)oc5c4)c[nH]c3n2)c(OC)c1
pIC50 [1]: 5.97
pIC50 [2]: 6.49
pIC50 [3]: 7.05
pIC50 [4]: > 7.50
pIC50 [5]: > 7.50
pIC50 [6]: > 7.50
viability, T/C [7]: 96.3%
viability, T/C [8]: 93.1%
viability, T/C [9]: 84.3%
viability, T/C [10]: 54%
viability, T/C [31]: 9.3%
viability, T/C [32]: 1.52%
viability, T/C [11]: 60.2%
viability, T/C [12]: 57%
viability, T/C [13]: 48.8%
viability, T/C [14]: 36.5%
viability, T/C [33]: 12.5%
viability, T/C [34]: 1.5%
viability, T/C [15]: 55.6%
viability, T/C [16]: 49.5%
viability, T/C [17]: 35.6%
viability, T/C [18]: 20.6%
viability, T/C [35]: 5.31%
viability, T/C [36]: 2.16%
viability, T/C [19]: 43.4%
viability, T/C [20]: 42.6%
viability, T/C [21]: 24.4%
viability, T/C [22]: 19.5%
viability, T/C [37]: 8.99%
viability, T/C [38]: 2.33%
viability, T/C [23]: 35.7%
viability, T/C [24]: 39%
viability, T/C [25]: 15.3%
viability, T/C [26]: 15.1%
viability, T/C [39]: 7.52%
viability, T/C [40]: 3.33%
viability, T/C [27]: 30.4%
viability, T/C [28]: 32.5%
viability, T/C [29]: 16.2%
viability, T/C [30]: 13.8%
viability, T/C [41]: 10.4%
viability, T/C [42]: 5.15%
